According to US11337627B2, “Bioelectrode for detection and/or oxidation of glucose, its production method and device” (CENTRE NATIONAL DE LA RECHERCHE SCIENTIFIQUE, priority 2016, dated 2022):

Legend:
FAD-GDH enzyme [1] = assay: Cyclic voltammetric inhibition assays: FAD-GDH directly on carbon nanotubes, aromatic molecules added in solution; format: biochemical; conditions: 100 mmol L^−1 glucose, 400 μmol L^−1 aromatic molecule
FAD-GDH enzyme [2] = assay: Cyclic voltammetry of bioelectrodes (carbon nanotubes / aromatic molecule / FAD-GDH) without and with glucose; format: biochemical
Protocol: In FIG. 4, the following terms have the following meanings: • uCNT=carbon nanotubes alone, • FADGDH=CNTs functionalized by FAD-GDH, • 25 mM glucose=CNTs functionalized by FAD-GDH in the presence of a glucose solution at 25 mmol L^−1, • 25 mM glucose (FAD region)=same as above, including the electroactive region of the FAD-GDH cofactor (FAD) in the measurement window in the presence of a glucose solution at 25 mmol L^−1, • FAD=Flavin Adenine Dinucleotide, • 25 mM glucose=concentration of the glucose solution of 25 mmol L^−1, • PYR-NHS=N-hydroxysuccinimide ester of pyrene-butyric acid, • PYR=pyrene, • 1.4-NQ=1.4-naphthoquinone, • PQ=9.10-phenanthrenequinone, • PL=1.10-phenanthroline, • MPL=5-methyl-1.10-phenanthroline, • PLQ=1.10-phenanthroline-5.6-dione.
The tested electrode was a vitreous carbon electrode (support 1) coated with layer 2 of carbon nanotubes alone (Comparative Example 2) or in which the FAD-GDH enzyme alone was deposited on layer 2 of carbon nanotubes (Comparative Example 4).
The dashed curve denoted 3 represents the cyclic voltammogram obtained with a larger electrochemical window (from −0.600 to 0.100 V vs SCE), in the presence of a glucose solution at 25 mmol L^−1.
In FIG. 4, the cartridge C represents the cyclic voltammograms of the electrode of Comparative Example 6 consisting of a vitreous carbon electrode, of layer 2 of carbon nanotubes functionalized by layer 3 of an aromatic molecule which is 1-pyrenebutyric acid N-hydroxysuccinimide ester (PANHS).
Cartridges D, G and H represent the cyclic voltammograms of the electrodes obtained in Examples 4, 5 and 6 respectively.
Cartridges E, F and I show the cyclic voltammograms obtained with the electrodes obtained in Examples 7, 8 and 1 respectively.

FAD-GDH enzyme [3] = assay: Cyclic voltammetric inhibition assays: FAD-GDH directly on carbon nanotubes, aromatic molecules added in solution; format: biochemical; conditions: 100 mmol L^−1 glucose; for catalytic current when the aromatic molecule is present in solution, versus absence of redox mediator: electrode of Comparative Example 4; for effect on performance of bioelectrocatalysis over time (inhibition of FAD-GDH): added in solution; for effect on catalytic currents (inhibition of FAD-GDH): 200 μmol L^−1 in solution, sampling times of less than three hours
Protocol: They were obtained with electrodes whose layer of FAD-GDH enzymes is directly deposited on layer 2 of carbon nanotubes in the presence of 100 mmol L^−1 of glucose solution.
The aromatic molecules 9.10-phenanthrenequinone, 1.10-phenanthroline-5.6-dione, phenanthrene and 1.10-phenanthroline are then gradually added in solution.
0 μM PX=CNTs functionalized by FAD-GDH in the presence of a glucose solution at 100 mmol L^−1 and in the absence of any aromatic molecules (X representing the aromatic molecule PLQ (cartridge A) or PQ (cartridge B))
400 μM PX=CNTs functionalized by FAD-GDH in the presence of a glucose solution at 100 mmol L^−1 and 400 μmol L^−1 of an aromatic molecule PLQ (cartridge A) or PQ (cartridge B)
400 μM PX (180 min)=CNTs functionalized by FAD-GDH in the presence of a glucose solution at 100 mmol L^−1 and […] of an aromatic molecule PLQ (cartridge A) or PQ (cartridge B) after incubation in the solution with a duration of 180 minutes.
200 μM PQ=CNTs functionalized by FAD-GDH in the presence of a solution of glucose at 100 mmol L^−1 and 200 μmol L^−1 of an aromatic molecule PQ (cartridge C and D)
200 μM PQ+200 μM PY (180 min)=CNTs functionalized by FAD-GDH in the presence of a glucose solution at 100 mmol L^−1, 200 μmol L^−1 of an aromatic molecule PQ and 200 μmol L^−1 of an aromatic molecule PY after incubation in the solution for a duration of 180 minutes. (Y represents the aromatic molecule PL (cartridge C) or PH (cartridge D)). • PLQ=1.10-phenanthroline-5.6-dione. • PQ=9.10-phenanthrenequinone, • PL=1.10-phenanthroline, • PH=phenanthrene,
The electrode tested was a vitreous carbon electrode (support 1) in which the FAD-GDH enzyme alone was deposited on layer 2 of carbon nanotubes (Comparative Example 4).

enzyme FAD-GDH = conditions: known; supplier catalog; cited from earlier work

O=C1C(=O)c2cccnc2-c2ncccc21 [1.10-phenanthroline-5.6-dione]
change of catalytic current after 180 min incubation (inhibition of FAD-GDH) (FAD-GDH enzyme [1]): sharp decrease in the catalytic current
glucose concentration at saturation (FAD-GDH enzyme [2]; aromatic molecule immobilized on carbon nanotube layer with FAD-GDH): ~130 mmol/L
electrocatalytic current (FAD-GDH enzyme [2]; aromatic molecule immobilized on carbon nanotube layer with FAD-GDH, potentials higher than 0 V vs SCE, after saturation with glucose): 600-700 μA
electron transfer behavior of the aromatic molecule towards FAD-GDH (FAD-GDH enzyme [2]; non-covalent immobilization on a layer of carbon nanotubes): the best redox aromatic molecule
catalytic current when the aromatic molecule is present in solution, versus absence of redox mediator (FAD-GDH enzyme [3]): strong increase in the catalytic current
effect on performance of bioelectrocatalysis over time (inhibition of FAD-GDH) (FAD-GDH enzyme [3]): progressive decrease in the performance of bioelectrocatalysis

c1cnc2c(c1)ccc1cccnc12 [1.10-phenanthroline]
inhibitory activity for FAD-GDH oxidation of glucose (enzyme FAD-GDH): inhibitor of the enzyme FAD-GDH
change of catalytic current after 180 min incubation together with PQ (inhibition of FAD-GDH) (FAD-GDH enzyme [3]; 200 μmol L^−1 PQ and 200 μmol L^−1 tested molecule, 180 min): The catalytic current drops again
effect on performance of bioelectrocatalysis over time (inhibition of FAD-GDH) (FAD-GDH enzyme [3]): progressive decrease in the performance of bioelectrocatalysis

O=C1C(=O)c2ccccc2-c2ccccc21 [9.10-phenanthrenequinone]
change of catalytic current after 180 min incubation (inhibition of FAD-GDH) (FAD-GDH enzyme [1]): no decrease in the catalytic current
effect on catalytic currents (inhibition of FAD-GDH) (FAD-GDH enzyme [3]): does not cause a drastic decrease in the catalytic currents
catalytic current when the aromatic molecule is present in solution, versus absence of redox mediator (FAD-GDH enzyme [3]): strong increase of the catalytic current

c1ccc2c(c1)ccc1ccccc12 [phenanthrene]
effect on catalytic currents (inhibition of FAD-GDH) (FAD-GDH enzyme [3]): does not cause a drastic decrease in the catalytic currents
